Reference: the OPERA property sets (Mansouri et al. 2018)

Details: not given

SMILES	boiling point [°C]	melting point [°C]	log10 Koc (L/kg)	log10 vapour pressure (mmHg)	log10 Henry constant (atm·m³/mol)	ready biodegradability	log10 Koa	log10 biodegradation half-life (days)
CC(CC1CCCCC1)CC1CCCCC1	295	0.6						
O=C(Nc1ccc(Cl)cc1)c1cc(Cl)cc(Cl)c1O		142						
CCCCOC(=O)C(C)Oc1ccc(Oc2ccc(C(F)(F)F)cn2)cc1 (configuration not stated)		9	3.62	-6.5				
Cc1cc(O)cc(Br)c1		56.5						
CCNc1ccccc1	203	-63.5		-0.69	-5.01	not readily biodegradable		
C=C=CCCl	88							
CC(=O)Oc1ccc(C(=O)O)cc1		192						
Clc1ccc2ccccc2c1	256	61		-1.91	-3.49		5.8	
C#CC1(OC(N)=O)CCCCC1		96				readily biodegradable		
CCCCOB(OCCCC)OCCCC	234			-0.279				
CC(C)C1CCCc2ccccc21 (configuration not stated)						not readily biodegradable		
Clc1ccc(Cl)c(-c2cc(Cl)c(Cl)c(Cl)c2)c1		105						
Cc1nc2ccc([N+](=O)[O-])cc2[nH]1		224						
CN1CCN(C2=Nc3ccccc3Cc3ccccc32)CC1		137						
Cc1cc(O)c(C(C)(C)C)cc1C(C)CC(c1cc(C(C)(C)C)c(O)cc1C)c1cc(C(C)(C)C)c(O)cc1C (configuration not stated)		186						
NS(=O)(=O)c1ccc(SCCO)cc1		112						
NC(=O)c1c(F)c(F)c(F)c(F)c1F		147						
NC(=O)c1cccc([N+](=O)[O-])c1	312	143	1.95					
CS(=O)(=O)c1ccc([C@@H](O)[C@@H](CO)NC(=O)C(Cl)Cl)cc1		165						
CC1=CCC(C)C1 (configuration not stated)	93.2							
CCOc1ccc(N=Nc2ccc(OCC)cc2)cc1		162						
CCCCC(=O)OC	127			1.28	-3.5			
CCC[C@H]1CCCCC1=O	197							
C[C@H]1CC=CCC1	103	-116						
CCCCCCCCCCCCCCCCCCCCc1ccccc1	429	44						

SMILES	boiling point [°C]	melting point [°C]	log10 Koc (L/kg)	log10 vapour pressure (mmHg)	log10 Henry constant (atm·m³/mol)	ready biodegradability	log10 Koa	log10 biodegradation half-life (days)
CSc1ccc(O)cc1C						not readily biodegradable		
COC(=O)[C@@H](N)Cc1ccc(O)cc1		137						
O=C(O)C1=CCCc2ccccc21	306	125						
BrCCCCBr	197	-16.5		-0.211				
CC=CC(C)(C)O	112							
CC1OC(=O)C(C)OC1=O (configuration not stated)		118						
CCCCC(CC)COCC(CC)CCCC (configuration not stated)	269							
CC1CCC(C)C1 (configuration not stated)								0.602
NC(=O)Nc1ccc(Cl)c(Cl)c1			2.53					
Clc1cc(Cl)c2c(c1Cl)Oc1ccccc1O2		128		-6.12	-4.44		8.97	
CCC(C)COC(C)=O (configuration not stated)	140							
C=CCCCCCCCCCCCCCCCC		17.5		-4.17				
CC1(N)CCC(C(C)(C)N)CC1 (configuration not stated)		-45						
CCCCCCCCCCCC[N+](C)(C)CCOc1ccccc1.[Br-]		112						
O=C1c2ccccc2C(=O)c2c1cc(S(=O)(=O)[O][Na])c(O)c2O						not readily biodegradable		
Clc1cc(Cl)c(-c2c(Cl)c(Cl)cc(Cl)c2Cl)cc1Cl							9.87	
CCOC(=O)c1c[nH]c(=S)[nH]c1=O		252						
CCOP(=S)(OCC)Oc1nc(Cl)c(Cl)cc1Cl		42	3.7	-4.69	-5.53	not readily biodegradable		
CCNc1nc(Cl)nc(NC(C)C)n1		173	2.24	-6.54		not readily biodegradable		
Clc1cccc(-c2c(Cl)c(Cl)cc(Cl)c2Cl)c1Cl				-5.96	-4.31			
CC(C)c1ccc(Br)cc1	219	-22.5						
CO[Si](OC)(OC)OC	121							
CCN=Cc1ccccc1	196							
COc1ccc(NC(C)=O)cc1	335	131	1.4					
C[C@]12C=CC(=O)C=C1CC[C@@H]1[C@@H]2[C@@H](O)C[C@@]2(C)[C@H]1CC[C@]2(O)C(=O)COC(=O)CCCc1ccc(N(CCCl)CCCl)cc1		164						

SMILES	boiling point [°C]	melting point [°C]	log10 Koc (L/kg)	log10 vapour pressure (mmHg)	log10 Henry constant (atm·m³/mol)	ready biodegradability	log10 Koa	log10 biodegradation half-life (days)
COc1ccc2c(c1)CC[C@@H]1[C@@H]2CC[C@]2(C)[C@@H](O)[C@H](O)C[C@@H]12		159						
c1ccc2c(c1)Cc1c-2ccc2ccccc12	405	190		-6.61	-4.58			2.15
CC(C)(C)OO		-8		0.738		not readily biodegradable		
N#C[S-].[Na+]		287						
Cc1ccc(O)c(C=O)c1	218	56						
NS(=O)(=O)c1ccc(N2C(=O)CC(c3ccccc3)C2=O)c(Cl)c1 (configuration not stated)		206						
c1ccc(N2CCOCC2)cc1		52.5						
CCC(O)(CC)C(C)C	160							
CCC(C)=C(C)C(C)=O	158							
O=[N+]([O-])c1ccccc1-c1ccccc1[N+](=O)[O-]	305	126						
CCC(CC)C(=O)OCCOCCOCCOC(=O)C(CC)CC						readily biodegradable		
CCCC(Br)CC (configuration not stated)	142							
C=CCCCCC(=O)O	226	-6.5						
O=C1c2ccccc2C(=O)c2c(O)c(O)cc(O)c21		259						
Cc1c(Cl)c(C)c(Cl)c(Cl)c1Cl		223						
c1nnn[nH]1		157						
CCOC(=O)CCN(Cc1ccccc1)SN(C)C(=O)O/N=C(/C)SC		47		-7.46				
CCC1C=CCCC1 (configuration not stated)	134							
CC(=O)C(F)(F)F	22				-5.11			
COc1cccc(O)c1O		42.8						
CC1CCCCCC1=O (configuration not stated)	185							
CCCCCCc1ccc(N)cc1	282							
CC1=NN(c2ccc(C)cc2)C(=O)C1		138						
Clc1ccccc1Oc1ccccc1				-2.4				
CNC[C@H](O)c1cccc(O)c1.Cl		142						

SMILES	boiling point [°C]	melting point [°C]	log10 Koc (L/kg)	log10 vapour pressure (mmHg)	log10 Henry constant (atm·m³/mol)	ready biodegradability	log10 Koa	log10 biodegradation half-life (days)
O=C(F)C(F)(F)F	-59				-3.48			
Cc1ccc(OP(=O)(Oc2ccc(C)cc2)Oc2ccc(C)cc2)cc1		77.5						
N#CCCOc1cccc2ccccc12		64						
CN(Cc1cc(Br)cc(Br)c1N)C1CCCCC1		238						
ClC=C(Cl)CCl	142			0.643				
CC(Cl)C(Cl)CCl (configuration not stated)	168							
O=C(C(=O)c1ccco1)c1ccco1		164						
NCCS		98						
Nc1cccc(Oc2ccccc2)c1	315	37						
COc1ccccc1N(C)C	210							
CCCC#CCCCC(=O)O		-3						
Cc1cc(C)cc(O)c1	222	63.6	2.83	-1.39	-6.21			
CC1CC(C)C(C)C1 (configuration not stated)	117	-132						
CCN(CC)c1ccc(N=O)cc1		87.5						
CC12CC3CC(C)(C1)CC(N)(C3)C2		258						
ClC(Cl)[Si](Cl)(Cl)Cl	145							
CCC(C)C(O)C(C)CC (configuration not stated)	186							
C=C(C)C(=O)OC(C)(C)C						not readily biodegradable		
C1C2CC3CC1CC(C2)C3		205						3
C[C@H](CN1CCOCC1)C(C(=O)N1CCCC1)(c1ccccc1)c1ccccc1		182						
Cc1ccc(C)c(C(C)c2ccccc2)c1 (configuration not stated)						not readily biodegradable		
CCCCCCCCCCCC1CCCC1	296	-10						
CCCN(CCC)N=O	206					not readily biodegradable		
NS(=O)(=O)c1cc2c(s1)SCCC2=O		222						
CC(C)(c1ccccc1)c1ccc(Nc2ccc(C(C)(C)c3ccccc3)cc2)cc1						not readily biodegradable		

SMILES	boiling point [°C]	melting point [°C]	log10 Koc (L/kg)	log10 vapour pressure (mmHg)	log10 Henry constant (atm·m³/mol)	ready biodegradability	log10 Koa	log10 biodegradation half-life (days)
O=C(c1ccccc1)C1CCC1	260							
CCc1ccc(C(C)=O)cc1		-20.6		-0.0389				
CC[N+](C)(C)CCN(C)CC[N+](C)(C)CC.[Br-].[Br-]		214						
NS(=O)(=O)c1cccc([N+](=O)[O-])c1		167						
CC[C@@H]1CN2CCc3c([nH]c4cccc(OC)c34)[C@H]2C[C@@H]1/C(=C\OC)C(=O)OC		104						
CN1C(=O)C(C)(C2=CCCCC2)C(=O)N=C1O (configuration not stated)		146						
CCCC(=O)c1ccccc1	228	12						
CCCCCCCCCCCCOCCCCCCCCCCCC						readily biodegradable		
CCC(c1ccc(O)c(C)c1)C(CC)c1ccc(O)c(C)c1 (configuration not stated)		145						
CCB(Cl)CC	78.5	-84.6						
CC(Cl)C(C)(C)O (configuration not stated)	142							
CCCCNC(C)=O	229							
FC(F)(F)C(Cl)(Cl)Cl	46.1	14.2		2.56				
O=C(CF)c1ccccc1		29						
C[C@H](F)Cl	16.2							
CCC(C)c1cc([N+](=O)[O-])cc([N+](=O)[O-])c1OC(=O)OC(C)C (configuration not stated)		61						
C/C(=C/c1ccccc1)CC(N)=O		133						
BrC(Br)C(Br)Br	244	0		-1.7		not readily biodegradable		
COc1ccc(COC(C)=O)cc1	270	84						
C=C=O	-49.8	-151		4.02				
O=C(Oc1cccc2cccnc12)c1ccccc1		119				readily biodegradable		
C=CCn1c(=O)n(CC=C)c(=O)n(CC=C)c1=O		20.5				not readily biodegradable		
NC(=O)c1ccccc1	290	129	1.46		-9.61			

Same assay, conditions: fish

SMILES	log10 BCF	log10 biotransformation half-life (days)
CCNc1ccccc1	1.11	-0.65
Clc1ccc2ccccc2c1	3.63	
Clc1cc(Cl)c2c(c1Cl)Oc1ccccc1O2	2.75	0.43
Clc1cc(Cl)c(-c2c(Cl)c(Cl)cc(Cl)c2Cl)cc1Cl		2.45
CCOP(=S)(OCC)Oc1nc(Cl)c(Cl)cc1Cl	3.18	0.77
CCNc1nc(Cl)nc(NC(C)C)n1	0.9	-1.05
Cc1ccc(C)c(C(C)c2ccccc2)c1 (configuration not stated)	2.86	0.1
O=C(Nc1ccc2c(O)cc(S(=O)(=O)O)cc2c1)Nc1ccc2c(O)cc(S(=O)(=O)O)cc2c1	0.26	
BrC(Br)C(Br)Br	0.74	
